Test results from patent US20050101574A1, “Parathyroid hormone production inhibitors containing vitamin d3 derivatives” (priority 2000, published 2005).
Values belong to the molecule of their own block, whether it stands above or below them.

Legend:
[1] = test system: PTH concentration in serum; assay: PTH concentration in serum of vitamin D deficient rats after intravenous administration (radioimmunoassay); type: in vivo, rat; conditions: for PTH conc.: mean ± standard error, n = 5
Experimental: The number of animals were five for one group.
The volume of administered liquid was 2 mL/kg.
(§1) The volume of administered solution was 2 mL/kg.

[2] = test system: calcium concentration in serum; conditions: rat, in vivo
Experimental: (§2) (1) Male Wistar rats of 4 weeks old were purchased from Japan SLC (SLC, Shizuoka prefecture). The rats were put into wire cages three for each cage and bred under the condition of 23±1° C. and 55±10% humidity by allowing the rats to free ingestion of a vitamin D deficient feed for animal breeding (Ca, 0.0036%; P, 0.3%; Harlan Teklad Research Diet, Madison, Wis., U.S.A.) and drinking water (well water treated with 0.4%±0.2 ppm hypochlorite) for 7 weeks. The number of animals were five for one group.
(§3) (2) As shown in the Table 2, the negative control group (Group 1) was administered with a solvent (5% ethanol/0.1% Triton X-100/physiological saline solution) and the positive control group (Group 2) was administered with 0.5 μg/kg of 1α,25-dihydroxyvitamin D3 by intravenous administration.
(§4) (2) As shown in the Table 3, the negative control group (Group 1) was administered with a solvent (5% ethanol/0.1% Triton X-100/physiological saline solution) and the positive control group (Group 2) was administered with 0.25 μg/kg of 1α,25-dihydroxyvitamin D3 by intravenous administration.
(§5) (2) As shown in the Table 4, the negative control group (Group 1) was administered with a solvent (5% ethanol/0.1% Triton X-100/physiological saline solution) and the positive control group (Group 2) was administered with 1α,25-dihydroxyvitamin D3 at a dose of 0.1 μg/kg, 0.5 μg/kg and 2.5 μg/kg by intravenous administration.

[3] = test system: intestinal calcium absorption; assay: Calcium absorption activity of the intestinal canal (duodenum) of vitamin D deficient rats, inverted gut sac method; type: in vivo, rat; parameters: Intestinal calcium absorption: unit not given here; conditions: for Intestinal calcium absorption: Table 4: vitamin D deficient rats, i.v., Time 8 hrs, mean ± standard error, n = 5; for intestinal calcium absorption promoting activity: 8 hours, vitamin D deficient rats
Experimental: as §1
J. Physiol., vol.216, pp. 1351-1359, 1969.

[4] = test system: calcium concentration in serum; assay: Calcium concentration in serum of vitamin D deficient rats after intravenous administration (OCPC method); conditions: for Calcium conc. in serum: Table 4: vitamin D deficient rats; for Calcium conc. in serum / Calcium conc.: i.v., mean ± standard error, n = 5
Experimental: as §2, §3, §4, §5

[5] = intravenous administration at a dose of 0.5 μg/kg, vitamin D deficient rats

calcium metabolism activity [2]: absolutely unobservable
Structure (SMILES): C=C1CC(CC(C)C2CCC3C(=CC=C4CC(O)CC(O)C4=C)CCCC32C)OC1=O [Compound 11 (23S isomer), (23S)-25-dehydro-1α,25-dihydroxyvitamin D3-26,23-lactone]
PTH conc. ([1]; Table 2: vitamin D deficient rats, i.v., Administration Rate 50, Time 4 hrs): 354 ± 65 pg/ml serum
PTH conc. ([1]; Table 2: vitamin D deficient rats, i.v., Administration Rate 50, Time 8 hrs): 330 ± 72 pg/ml serum
PTH conc. ([1]; Table 2: vitamin D deficient rats, i.v., Administration Rate 50, Time 24 hrs): 319 ± 1 pg/ml serum
PTH conc. ([1]; Table 2: vitamin D deficient rats, i.v., Administration Rate 50, Time 48 hrs): 436 ± 51 pg/ml serum
PTH conc. ([1]; Table 2: vitamin D deficient rats, i.v., Administration Rate 50, Time 72 hrs): 528 ± 38 pg/ml serum
PTH conc. ([1]; Table 3: vitamin D deficient rats, i.v., Administration Rate 2, Time 8 hrs): 488 ± 47 pg/ml serum
PTH conc. ([1]; Table 3: vitamin D deficient rats, i.v., Administration Rate 10, Time 8 hrs): 385 ± 65 pg/ml serum
PTH conc. ([1]; Table 3: vitamin D deficient rats, i.v., Administration Rate 50, Time 8 hrs): 319 ± 56 pg/ml serum
PTH concentration in serum ([1]; intravenous administration at a dose of 10 μg/kg, vitamin D deficient rats (Example 1)): significantly lowered
time after administration of the lowest level of PTH concentration in serum ([1]; intravenous administration at a dose of 50 μg/kg, vitamin D deficient rats): 24 h
serum PTH concentration lowering action relative to the action of 1α,25-dihydroxyvitamin D3 ([1]; ratio to 1α,25-dihydroxyvitamin D3, vitamin D deficient rats, i.v., 8 hours): 1/12
effect on PTH concentration in serum versus serum calcium concentration (conclusion in words) ([1]; vitamin D deficient rats, Examples 1, 2 and 3): effective for lowering the PTH concentration in serum without changing the calcium concentration in serum
Intestinal calcium absorption ([3]; Administration Rate 10 (mg/kg)): 1.89 ± 0.04
Intestinal calcium absorption ([3]; Administration Rate 50 (mg/kg)): 2.32 ± 0.21
Intestinal calcium absorption ([3]; Administration Rate 250 (mg/kg)): 2.53 ± 0.10
intestinal calcium absorption promoting activity ([3]; administration dose of from 50 μg/kg to 250 μg/kg i.v.): weak
intestinal calcium absorption promoting activity ([3]; dose of 10 μg/kg i.v.): absolutely unobservable

Structure (SMILES): C=C1/C(=C\C=C2/CCC[C@]3(C)[C@@H]([C@H](C)CCCC(C)(C)O)CC[C@@H]23)C[C@@H](O)C[C@@H]1O [1α,25-dihydroxyvitamin D3]
PTH conc. ([1]; Table 3: vitamin D deficient rats, i.v., Administration Rate 0.25, Time 8 hrs): 459 ± 14 pg/ml serum
time after administration of the lowest level of PTH concentration in serum [1, 5]: 24 h
PTH conc. ([1]; vitamin D deficient rats, i.v., Administration Rate 0.5, Time 4 hrs): 458 ± 38 pg/ml serum
PTH conc. ([1]; vitamin D deficient rats, i.v., Administration Rate 0.5, Time 8 hrs): 399 ± 2 pg/ml serum
PTH conc. ([1]; vitamin D deficient rats, i.v., Administration Rate 0.5, Time 24 hrs): 325 ± 31 pg/ml serum
PTH conc. ([1]; vitamin D deficient rats, i.v., Administration Rate 0.5, Time 48 hrs): 488 ± 43 pg/ml serum
PTH conc. ([1]; vitamin D deficient rats, i.v., Administration Rate 0.5, Time 72 hrs): 555 ± 67 pg/ml serum
Calcium conc. in serum ([4]; Administration Rate 0.1 (mg/kg), Time 8 hrs): 5.30 ± 0.10 mg/100 ml serum
Calcium conc. in serum ([4]; Administration Rate 0.5 (mg/kg), Time 8 hrs): 5.90 ± 0.40 mg/100 ml serum
Calcium conc. in serum ([4]; Administration Rate 2.5 (mg/kg), Time 8 hrs): 6.17 ± 0.07 mg/100 ml serum
time after administration of the maximum level of calcium concentration in serum [4, 5]: 8 h
Calcium conc. ([4]; vitamin D deficient rats, Administration Rate 0.5 (mg/kg), Time 4 hrs): 5.33 ± 0.09 mg/100 ml serum
Calcium conc. ([4]; vitamin D deficient rats, Administration Rate 0.5 (mg/kg), Time 8 hrs): 6.00 ± 0.17 mg/100 ml serum
Calcium conc. ([4]; vitamin D deficient rats, Administration Rate 0.5 (mg/kg), Time 24 hrs): 5.87 ± 0.22 mg/100 ml serum
Calcium conc. ([4]; vitamin D deficient rats, Administration Rate 0.5 (mg/kg), Time 48 hrs): 5.48 ± 0.15 mg/100 ml serum
Calcium conc. ([4]; vitamin D deficient rats, Administration Rate 0.5 (mg/kg), Time 72 hrs): 5.10 ± 0.18 mg/100 ml serum
